Each block holds one compound with its values, some of them ahead of it.
Key:
physchem [1] = conditions: PAMPA, pH 5.5
physchem [2] = conditions: PAMPA, pH 7.4
[3] = Plasma concentration in mouse at 30 mg/kg, po measured after 30 mins post dose; type: ADME, organism-based
Plasma [4] = experiment: Unbound plasma concentration in mouse model of chronic constriction injury-induced cold hyperalgesia at 100 mg/kg, po dosed 30 mins before testing starting 5 weeks after surgery; type: ADME, organism-based; conditions: in vivo
[5] = Plasma concentration in mouse model of complete Freund's adjuvant-induced inflammatory pain at 60 mg/kg, po measured after 90 mins post dose; type: ADME, organism-based
[6] = Drug concentration in mouse trigeminal ganglion at 30 mg/kg, po measured after 30 mins post dose; type: ADME, organism-based; conditions: read-out: Drug uptake
[7] = Ratio of drug level in brain to plasma of mouse at 100 mg/kg, po measured after 90 mins post dose; type: ADME, organism-based; conditions: read-out: BPR
[8] = Ratio of drug level in brain to plasma of mouse at 100 mg/kg, po measured after 30 mins post dose; type: ADME, organism-based; conditions: read-out: BPR
[9] = Plasma concentration in mouse model of nociceptive flexion reflex 10 mg/kg, ip measured after 60 mins post dose; type: ADME, organism-based
Plasma [10] = experiment: Plasma concentration in mouse model of chronic constriction injury-induced cold hyperalgesia at 100 mg/kg, po dosed 30 mins before testing starting 5 weeks after surgery; type: ADME, organism-based; conditions: in vivo
[11] = Plasma concentration in mouse model of formalin-induced persistent pain at 30 mg/kg, po measured after 90 mins post dose; type: ADME, organism-based
[12] = Unbound drug concentration in mouse dorsal root ganglion at 30 mg/kg, po measured after 30 mins post dose; type: ADME, organism-based; conditions: in vivo, 0.5 h
Plasma [13] = experiment: Unbound plasma concentration in mouse model of nociceptive flexion reflex 10 mg/kg, ip measured after 60 mins post dose; type: ADME, organism-based; conditions: in vivo, 1 h
[14] = Unbound drug concentration in dorsal root ganglion of mouse model of formalin-induced persistent pain at 30 mg/kg, po measured after 90 mins post dose; type: ADME, organism-based; conditions: in vivo, 1.5 h
[15] = Half life in mouse at 30 mg/kg, po; type: ADME, organism-based; conditions: in vivo
Plasma [16] = experiment: Unbound plasma concentration in mouse model of nociceptive flexion reflex 30 mg/kg, ip measured after 60 mins post dose; type: ADME, organism-based; conditions: in vivo, 1 h
[17] = Plasma concentration in mouse model of complete Freund's adjuvant-induced inflammatory pain at 30 mg/kg, po measured after 90 mins post dose; type: ADME, organism-based
[18] = Plasma concentration in mouse at 100 mg/kg, po measured after 30 mins post dose; type: ADME, organism-based
Plasma [19] = experiment: Unbound plasma concentration in mouse model of formalin-induced persistent pain at 30 mg/kg, po measured after 90 mins post dose; type: ADME, organism-based; conditions: in vivo, 1.5 h
[20] = Clearance in mouse at 2 mg/kg, iv; type: ADME, organism-based; conditions: in vivo
[21] = Drug concentration in brain of mouse model of complete Freund's adjuvant-induced inflammatory pain at 10 mg/kg, po measured after 90 mins post dose; type: ADME, organism-based; conditions: read-out: Drug uptake
[22] = Drug concentration in brain of mouse model of complete Freund's adjuvant-induced inflammatory pain at 30 mg/kg, po measured after 90 mins post dose; type: ADME, organism-based; conditions: read-out: Drug uptake
[23] = Drug concentration in brain of mouse model of complete Freund's adjuvant-induced inflammatory pain at 60 mg/kg, po measured after 90 mins post dose; type: ADME, organism-based; conditions: read-out: Drug uptake
[24] = Drug concentration in dorsal root ganglion of mouse model of formalin-induced persistent pain at 30 mg/kg, po measured after 90 mins post dose; type: ADME, organism-based; conditions: read-out: Drug uptake
[25] = Plasma concentration in mouse at 100 mg/kg, po measured after 90 mins post dose; type: ADME, organism-based
Plasma [26] = experiment: Unbound plasma concentration in mouse model of complete Freund's adjuvant-induced inflammatory pain at 60 mg/kg, po measured after 90 mins post dose; type: ADME, organism-based; conditions: in vivo, 1.5 h
Plasma [27] = experiment: Unbound plasma concentration in mouse at 30 mg/kg, po measured after 30 mins post dose; type: ADME, organism-based; conditions: in vivo, 0.5 h
[28] = Drug concentration in mouse brain at 100 mg/kg, po measured after 90 mins post dose; type: ADME, organism-based; conditions: read-out: Drug uptake
Plasma [29] = experiment: Unbound plasma concentration in mouse model of complete Freund's adjuvant-induced inflammatory pain at 30 mg/kg, po measured after 90 mins post dose; type: ADME, organism-based; conditions: in vivo, 1.5 h
[30] = Drug concentration in mouse brain at 100 mg/kg, po measured after 30 mins post dose; type: ADME, organism-based; conditions: read-out: Drug uptake
[31] = Drug concentration in trigeminal ganglion of mouse model of formalin-induced persistent pain at 30 mg/kg, po measured after 90 mins post dose; type: ADME, organism-based; conditions: read-out: Drug uptake
[32] = Drug concentration in mouse dorsal root ganglion at 30 mg/kg, po measured after 30 mins post dose; type: ADME, organism-based; conditions: read-out: Drug uptake
[33] = Volume of distribution at steady state in mouse at 2 mg/kg, iv; type: ADME, organism-based; conditions: in vivo, read-out: Vdss
[34] = Plasma concentration in mouse model of complete Freund's adjuvant-induced inflammatory pain at 10 mg/kg, po measured after 90 mins post dose; type: ADME, organism-based
[35] = Cmax in mouse at 30 mg/kg, po; type: ADME, organism-based; parameters: dose 30 mg/kg, route oral; conditions: in vivo
Plasma [36] = experiment: Unbound plasma concentration in mouse model of complete Freund's adjuvant-induced inflammatory pain at 10 mg/kg, po measured after 90 mins post dose; type: ADME, organism-based; conditions: in vivo, 1.5 h
[37] = Oral bioavailability life in mouse at 30 mg/kg; type: ADME, organism-based; conditions: in vivo
[38] = Plasma concentration in mouse model of nociceptive flexion reflex 30 mg/kg, ip measured after 60 mins post dose; type: ADME, organism-based
[39] = PAMPA, pH 5.5

Papp (physchem [1]): 54.6 ×10⁻⁶ cm/s | Papp (physchem [2]): 20.7 ×10⁻⁶ cm/s
SMILES: O=S(=O)(Nc1nccs1)c1cc(Cl)c(NC[C@H]2CC[C@H](O)CC2)cc1F

Papp (physchem [1]): 21.6 ×10⁻⁶ cm/s | Papp (physchem [2]): 16.2 ×10⁻⁶ cm/s
SMILES: O=S(=O)(Nc1nccs1)c1cc(Cl)c(NC[C@H]2CCC[C@H](O)C2)cc1F (racemic)

Papp (physchem [1]): 42.8 ×10⁻⁶ cm/s | Papp (physchem [2]): 73.5 ×10⁻⁶ cm/s
SMILES: O=S(=O)(Nc1nccs1)c1cc(Cl)c(NC[C@H]2CCCO[C@@H]2c2ccccc2)cc1F (racemic)

Further lines, the compound ahead of its results:

SMILES: O=S(=O)(Nc1nccs1)c1cc(Cl)c(NC[C@H]2CC[C@@H](O)CC2)cc1F
Papp (physchem [1]): 46.4 ×10⁻⁶ cm/s | Papp (physchem [2]): 10.1 ×10⁻⁶ cm/s

SMILES: O=S(=O)(Nc1nccs1)c1cc(Cl)c(NC[C@H]2CCCOC2)cc1F
concentration at 0.5 h [3]: 13000 nM | Cp(f) (Plasma [4]): 740 nM | concentration at 1.5 h [5]: 2560 nM | concentration at 0.5 h [6]: 5800 nM | Kp at 1.5 h [7]: 0.012 | Kp at 0.5 h [8]: 0.017 | concentration at 1 h [9]: 29000 nM | concentration (Plasma [10]): 32000 nM | concentration at 1.5 h [11]: 7300 nM | Drug uptake(free) [12]: 0.11 µM | Papp (physchem [1]): 47.7 ×10⁻⁶ cm/s | Cp(f) (Plasma [13]): 660 nM | Drug uptake(free) [14]: 0.07 µM | half-life [15]: 3 h | Cp(f) (Plasma [16]): 1900 nM | concentration at 1.5 h [17]: 1130 nM | concentration at 0.5 h [18]: 7340 nM | Cp(f) (Plasma [19]): 170 nM | clearance [20]: 13 mL/min/kg | concentration at 1.5 h [21]: < 25 nM | concentration at 1.5 h [22]: < 25 nM | concentration at 1.5 h [23]: < 25 nM | concentration at 1.5 h [24]: 660 nM | concentration at 1.5 h [25]: 3670 nM | Cp(f) (Plasma [26]): 59 nM | Cp(f) (Plasma [27]): 300 nM | concentration at 1.5 h [28]: 42 nM | Cp(f) (Plasma [29]): 26 nM | concentration at 0.5 h [30]: 120 nM | concentration at 1.5 h [31]: 5000 nM | concentration at 0.5 h [32]: 1100 nM | Vd [33]: 0.6 L/kg | Papp (physchem [2]): 37.7 ×10⁻⁶ cm/s | concentration at 1.5 h [34]: 750 nM | Cmax [35]: 37000 nM | Cp(f) (Plasma [36]): 17 nM | bioavailability [37]: 47% | concentration at 1 h [38]: 82000 nM

SMILES: O=S(=O)(Nc1nccs1)c1cc(Cl)c(NCC2CCCC3(C2)OCCO3)cc1F (stereo not given)
Papp (physchem [1]): 45.1 ×10⁻⁶ cm/s | Papp (physchem [2]): 41.9 ×10⁻⁶ cm/s

SMILES: O=S(=O)(Nc1nccs1)c1cc(Cl)c(NCC2CCCCO2)cc1F (stereo not given)
Papp (physchem [1]): 61 ×10⁻⁶ cm/s | Papp (physchem [2]): 61 ×10⁻⁶ cm/s

SMILES: CC(C)(C)[C@H]1OCCC[C@@H]1CNc1cc(F)c(S(=O)(=O)Nc2nccs2)cc1Cl (racemic)
Papp [39]: Not Active | Papp (physchem [2]): 67.7 ×10⁻⁶ cm/s

SMILES: CC(C)(C)[C@@H]1OCCC[C@@H]1CNc1cc(F)c(S(=O)(=O)Nc2nccs2)cc1Cl (racemic)
Papp (physchem [2]): 43.9 ×10⁻⁶ cm/s

SMILES: O=S(=O)(Nc1nccs1)c1cc(Cl)c(NC[C@H]2CCC[C@@H](O)C2)cc1F (racemic)
Papp (physchem [1]): 21.6 ×10⁻⁶ cm/s | Papp (physchem [2]): 16.2 ×10⁻⁶ cm/s

Source: ChEMBL document CHEMBL4043185, “Discovery of non-zwitterionic aryl sulfonamides as Nav1.7 inhibitors with efficacy in preclinical behavioral models and translational measures of nociceptive neuron activation” (Bioorg Med Chem, 2017)
